Results on twelve molecules are retold here after patent publication US4652582A, “Antiinflammatory-2-halo-4,5-diarylpyrroles” (E. I. Du Pont de Nemours and Company, priority 1985, dated 1987).

The first assay concerns adjuvant-induced arthritis. Description: Established adjuvant-induced arthritis in rats (paw volume, uninjected left hind paw). The class given is in vivo, Male Charles River Lewis rats. The note with it: Rattus norvegicus, po, read-out: Adjuvant Arthritis ED50 (effective dose for 50% decrease from control paw volume). An excerpt: To detect and compare the antiinflammatory activities of compounds in this series and standard drugs, the adjuvant arthritis test was used. A good correlation exists with results in this assay and human efficacy. (Federation Proceedings, 32, 2, 1973 "Models Used for the Study and Therapy of Rheumatoid Arthritis"--Symposium of the American Society for Pharmacology and Experimental Therapeutics).
ESTABLISHED ADJUVANT-INDUCED ARTHRITIS IN RATS
Male Charles River Lewis rats (130-150 grams) are injected subcutaneously in the plantar area of the right hind paw with 0.1 ml of adjuvant (Difco heat-killed, lyophilized Mycobacterium butyricum suspended in mineral oil 5 mg/ml). 20 Non-arthritic controls are injected with mineral oil. The animals are held for 2 weeks to allow development of arthritis. Paw volumes (uninjected, left hind paw) are measured and the adjuvant injected rats are culled and distributed to treatment groups of 10 of equal disease severity. Non-arthritic controls are distributed to 2 groups of 10. The rats are given oral doses of compound or PVA-Acacia (Polyvinyl Alcohol 1%, Gum acacia, U.S.P. 5%, Methylparaben 0.5%) or 0.25% methocel (10 ml/kg) by gavage on that day and on the 6 following days. One day after the last dose, the paw volumes (uninjected, left hind paw) are measured using a Ugo Basile Volume Differential Meter Model 7101. Inhibiting effects are calculated by the following formula: [formula]
Dose-response regression lines of the percent decrease are plotted on semi-log paper by visual fit and the effective dose for 50% decrease from control paw volume (ED50) is determined by inspection.
Compounds from this series were also compared to indomethacin, phenylbutazone, ibuprofen, and aspirin.
For `CC(=O)Oc1ccccc1C(=O)O` [Aspirin, reference compound], the ED50 worked out at 305 mg/kg.
The same measure, in the same setting: the figure for `COc1ccc2c(c1)c(CC(=O)O)c(C)n2C(=O)c1ccc(Cl)cc1` [Indomethacin, reference compound] is 0.3 mg/kg.

Staying with this assay, now noted: rat, oral gavage daily, 7 days; paw volume one day after last dose; read-out: Adjuvant Arthritis ED50 (effective dose for 50% decrease from control paw volume).
With `CS(=O)(=O)c1ccc(-c2[nH]c(Br)cc2-c2ccc(F)cc2)cc1` [Example 2, 2-Bromo-4-(4-fluorophenyl)-5-(4-methylsulfonylphenyl)-1H-pyrrole], the ED50 was 1.1 mg/kg.
Consider `CS(=O)(=O)c1ccc(-c2[nH]c(Cl)cc2-c2ccc(F)cc2)cc1` [Example 3, 2-Chloro-4-(4-fluorophenyl)-5-(4-methylsulfonylphenyl)-1H-pyrrole], for which the ED50 amounted to 0.5 mg/kg.
Consider `CS(=O)(=O)c1ccc(-c2[nH]c(I)cc2-c2ccc(F)cc2)cc1` [Example 4, 2-Iodo-4-(4-fluorophenyl)-5-(4-methylsulfonylphenyl)-1H-pyrrole], for which the median effective dose (ED50) was 22 mg/kg.
Turning to `Cn1c(Br)cc(-c2ccc(F)cc2)c1-c1ccc(S(C)(=O)=O)cc1` [Example 5, 1-Methyl-2-bromo-4-(4-fluorophenyl)-5-(4-methylsulfonylphenyl)pyrrole], the median effective dose (ED50) worked out at 1.7 mg/kg.
For `CS(=O)(=O)c1ccc(-c2[nH]c(Br)c(Br)c2-c2ccc(F)cc2)cc1` [Example 6], the ED50 worked out at 0.88 mg/kg.
Regarding `CS(=O)(=O)c1ccc(-c2[nH]c(Cl)c(Cl)c2-c2ccc(F)cc2)cc1` [Example 9], the ED50 was 1.5 mg/kg.
Still for that read-out and setting: the figure for `CC(C)Cc1ccc(C(C)C(=O)O)cc1` (stereo not drawn) [Ibuprofen, reference compound] is 100 mg/kg; for `CCCCC1C(=O)N(c2ccccc2)N(c2ccccc2)C1=O` [Phenylbutazone, reference compound] it is 10 mg/kg.

The same assay, now with this note: rat, oral, daily dose 3 (mg/kg).
With `CS(=O)(=O)c1ccc(-c2[nH]c(Cl)c(Br)c2-c2ccc(F)cc2)cc1` [Example 8, 2-Chloro-3-bromo-4-(4-fluorophenyl)-5-(4-methylsulfonylphenyl)-1H-pyrrole], the “% decrease from control paw volume at indicated daily dose” value came out at 45%.

Still in this assay, the particulars now being: rat, oral, daily dose 9 (mg/kg).
`CC(C)(C)OC(=O)n1c(Br)cc(-c2ccc(F)cc2)c1-c1ccc(S(C)(=O)=O)cc1` [Example 1, 1-tert-Butyloxycarbonyl-2-bromo-4-(4-fluorophenyl)-5-(4-methylsulfonylphenyl)pyrrole]: the “% decrease from control paw volume at indicated daily dose” value is recorded as 44%.
